Results taken from ChEMBL document CHEMBL5360574, “Optimization of potent, selective and orally bioavailable biphenyl scaffold as FABP4 inhibitors for anti-inflammation” (Eur J Med Chem, 2023).
The source made the active and inactive calls. The calls are words filed in the database; no cut-off is given here.

Key:
[1] = biological target: Fatty acid-binding protein, adipocyte (Homo sapiens, UniProt P15090); experiment: Displacement of 1,8-ANS from FABP4 (unknown origin) assessed as inhibition constant by fluorescence based analysis
Chain of Fatty acid-binding protein, adipocyte (P15090 whole entry): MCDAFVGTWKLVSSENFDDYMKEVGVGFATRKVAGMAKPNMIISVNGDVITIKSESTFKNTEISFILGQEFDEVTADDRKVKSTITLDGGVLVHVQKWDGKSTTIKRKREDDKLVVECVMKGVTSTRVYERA

[2] = Toxicity in LPS-induced acute inflammation C57BL/6J mouse model assessed as effect on spleen damage at 50 mg/kg, po qd via gavage administered for 4 days followed by LPS induction by hematoxylin and eosin staining based microscopic analysis; assay type: organism-based; conditions: in vivo, 96 h, time 4 day
[3] = Toxicity in LPS-induced acute inflammation C57BL/6J mouse model assessed as effect on liver damage at 50 mg/kg, po qd via gavage administered for 4 days followed by LPS induction by hematoxylin and eosin staining based microscopic analysis; assay type: organism-based; conditions: in vivo, 96 h, time 4 day
THP-1 [4] = experiment: Cytotoxicity against human THP-1 cells assessed as reduction in cell growth at 80 uM measured after 24 hrs by CCK-8 assay; assay type: toxicity, cell-based; conditions: thp-1, 24 h
[5] = Toxicity in LPS-induced acute inflammation C57BL/6J mouse model assessed as change in body weight at 50 mg/kg, po qd via gavage administered for 4 days followed by LPS induction; assay type: organism-based; conditions: in vivo, 96 h, time 4 day
Mus musculus [6] = experiment: Antiinflammatory activity in LPS-induced acute inflammation C57BL/6J mouse model assessed as reduction in MCP-1 level in serum at 50 mg/kg, po qd via gavage administered for 4 days followed by LPS induction; assay type: functional, organism-based; conditions: time 4.0 day
Mus musculus [7] = experiment: Antiinflammatory activity in LPS-induced acute inflammation C57BL/6J mouse model assessed as reduction in AST level in serum at 50 mg/kg, po qd via gavage administered for 4 days followed by LPS induction; assay type: functional, organism-based; conditions: time 4.0 day
THP-1 [8] = experiment: Antiinflammatory activity in LPS-induced human THP-1 cells assessed as reduction in MCP-1 mRNA expression at 25 uM incubated for 24 hrs by RT-PCR analysis; assay type: functional, cell-based
Mus musculus [9] = experiment: Antiinflammatory activity in LPS-induced acute inflammation C57BL/6J mouse model assessed as reduction in ALT level in serum at 50 mg/kg, po qd via gavage administered for 4 days followed by LPS induction; assay type: functional, organism-based; conditions: time 4.0 day
3T3-L1 = experiment: Cytotoxicity against mouse 3T3-L1 cells assessed as reduction in cell growth at 100 uM measured after 24 hrs by CCK-8 assay; assay type: toxicity, cell-based; conditions: 3t3-l1, 24 h
[10] = biological target: Fatty acid-binding protein, heart (Homo sapiens, UniProt P05413); experiment: Displacement of 1,8-ANS from FABP3 (unknown origin) assessed as inhibition constant by fluorescence based analysis
Chain of Fatty acid-binding protein, heart (P05413 whole entry): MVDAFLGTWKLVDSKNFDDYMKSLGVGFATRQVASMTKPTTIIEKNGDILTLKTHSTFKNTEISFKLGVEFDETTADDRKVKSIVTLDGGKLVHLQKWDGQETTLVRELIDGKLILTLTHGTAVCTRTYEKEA

[11] = Metabolic stability in mouse liver microsomes assessed as intrinsic clearance at 0.1 uM measured per gram protein measured upto 60 mins in presence of NADPH by LC-MS/MS analysis; assay type: ADME, Microsome; conditions: 1 h
[12] = Clearance in ICR mouse at 3 mg/kg, iv measured upto 24 hrs by LC-MS/MS analysis; assay type: ADME, organism-based; conditions: in vivo
[13] = MRT in ICR mouse at 25 mg/kg, po measured upto 24 hrs by LC-MS/MS analysis; assay type: ADME, organism-based; conditions: in vivo
[14] = MRT in ICR mouse at 3 mg/kg, iv measured upto 24 hrs by LC-MS/MS analysis; assay type: ADME, organism-based; conditions: in vivo
[15] = Volume of distribution at steady state in ICR mouse at 3 mg/kg, iv measured upto 24 hrs by LC-MS/MS analysis; assay type: ADME, organism-based; conditions: in vivo, read-out: Vdss
[16] = AUC(0 to 24 hrs) in ICR mouse at 3 mg/kg, iv measured upto 24 hrs by LC-MS/MS analysis; assay type: ADME, organism-based; set-up: dose 3 mg/kg, time < 24 hrs, route iv; conditions: in vivo
[17] = Metabolic stability in mouse liver microsomes assessed as half life at 0.1 uM measured upto 60 mins in presence of NADPH by LC-MS/MS analysis; assay type: ADME, Microsome
THP-1 [18] = experiment: Antiinflammatory activity in LPS-induced human THP-1 cells assessed as inhibition of MCP-1 secretion at 1 uM pre-incubated with compound for 18 hrs followed by LPS induction measured after 6 hrs by ELISA method; assay type: functional, cell-based; conditions: time 24.0 hrs
[19] = Half life in ICR mouse at 25 mg/kg, po measured upto 24 hrs by LC-MS/MS analysis; assay type: ADME, organism-based; conditions: in vivo
[20] = Half life in ICR mouse at 3 mg/kg, iv measured upto 24 hrs by LC-MS/MS analysis; assay type: ADME, organism-based; conditions: in vivo
[21] = Cmax in ICR mouse at 25 mg/kg, po measured upto 24 hrs by LC-MS/MS analysis; assay type: ADME, organism-based; set-up: dose 25 mg/kg, time < 24 hrs, route po; conditions: in vivo
[22] = AUC(0 to 24 hrs) in ICR mouse at 25 mg/kg, po measured upto 24 hrs by LC-MS/MS analysis; assay type: ADME, organism-based; set-up: time < 24 hrs, dose 25 mg/kg, route po; conditions: in vivo
[23] = Metabolic stability in mouse liver microsomes assessed as intrinsic clearance at 0.1 uM measured upto 60 mins in presence of NADPH by LC-MS/MS analysis; assay type: ADME, Microsome; conditions: 1 h
[24] = Oral bioavailability in ICR mouse at 25 mg/kg measured upto 24 hrs by LC-MS/MS analysis; assay type: ADME, organism-based; conditions: in vivo
[25] = Tmax in ICR mouse at 25 mg/kg, po measured upto 24 hrs by LC-MS/MS analysis; assay type: ADME, organism-based; conditions: in vivo

## O=C(O)c1cc(O)cc(-c2cccc(Cl)c2-c2ccc3c(c2)CCO3)c1
[1]
  Ki: 0.55 µM

## O=C(O)c1cc(-c2cccc(Cl)c2-c2ccc3c(c2)OCO3)ccc1C(F)(F)F
[1]
  Ki: 1.69 µM

## CS(=O)(=O)Nc1ccc(-c2cccc(Cl)c2-c2ccc3c(c2)CCO3)cc1C(=O)O
[1]
  Ki: 0.33 µM

## O=C(O)Cc1cccc(-c2cccc(Cl)c2-c2ccc3c(c2)CCO3)c1
[1]
  Ki: 0.35 µM

## O=C(O)CCc1cccc(-c2cccc(Cl)c2-c2ccc3c(c2)CCO3)c1
[1]
  Ki: 1.81 µM

## Nc1ccc(-c2cccc(Cl)c2-c2ccc3c(c2)CCO3)cc1C(=O)O
[1]
  Ki: 0.43 µM

## O=C(O)C1CCc2ccc(-c3cccc(Cl)c3-c3ccc4nonc4c3)cc21 (centres undefined)
[1]
  Ki: 2.37 µM

## CCc1c(-c2ccccc2)c(-c2ccccc2)nn1-c1ccccc1-c1cccc(OCC(=O)O)c1
[2]
  Activity: Non-Toxic
[3]
  Activity: Non-Toxic
THP-1 [4]
  Activity: Non-Toxic
[5]
  Activity: Non-Toxic
Mus musculus [6]
  Activity: Active
Mus musculus [7]
  Activity: Active
THP-1 [8]
  Activity: Active
Mus musculus [9]
  Activity: Active
3T3-L1
  Activity: Non-Toxic

## O=C(O)C1CCc2ccc(-c3cccc(Cl)c3OCc3ccccc3)cc21 (centres undefined)
[1]
  Ki: 1.32 µM

## O=C(O)c1cc(-c2cccc(Cl)c2-c2ccc3c(c2)CCO3)ccc1[N+](=O)[O-]
[1]
  Ki: 0.3 µM

## O=C(O)c1cccc(-c2cccc(Cl)c2-c2ccc3c(c2)CCO3)c1
[1]
  Ki: 0.48 µM

## O=C(O)c1ccccc1Nc1cccc(Cl)c1-c1ccc2c(c1)CCO2
THP-1 [4]
  Activity: Non-Toxic
[10]
  Ki: 0.92 µM
3T3-L1
  Activity: Non-Toxic

## O=C(O)C1CCc2ccc(-c3cccc(Cl)c3-c3ccc4[nH]ncc4c3)cc21 (centres undefined)
[1]
  Ki: 0.76 µM

## O=C(O)C1CCc2ccc(-c3cccc(Cl)c3OCC3CCC3)cc21 (centres undefined)
[1]
  Ki: 0.75 µM

## CC(C(=O)O)c1cccc(-c2cccc(Cl)c2-c2ccc3c(c2)CCO3)c1 (centres undefined)
[1]
  Ki: 1.47 µM

## O=C(O)C1CCc2ccc(-c3cccc(Cl)c3OCC3CCCC3)cc21 (centres undefined)
[1]
  Ki: 1.73 µM

## O=C(O)c1cc(-c2cccc(Cl)c2-c2ccc3c(c2)CCO3)ccc1C(F)(F)F
[11]
  CLH: 3.94 mL/min/g
[12]
  clearance: 12.5 mL/min/kg
[2]
  Activity: Non-Toxic
[13]
  MRT: 5.3 h
[3]
  Activity: Non-Toxic
[14]
  MRT: 4.04 h
THP-1 [4]
  Activity: Non-Toxic
[5]
  Activity: Non-Toxic
[15]
  Vd: 3.32 L/kg
[16]
  AUC(0-t) at 24 h: 3600 ng·h/mL
[17]
  half-life at 0.1 µM: 8.9 h
THP-1 [18]
  Activity: Active
[19]
  half-life: 3.43 h
Mus musculus [6]
  Activity: Active
Mus musculus [7]
  Activity: Active
THP-1 [8]
  Activity: Active
Mus musculus [9]
  Activity: Active
[1]
  Ki: 0.51 µM
[20]
  half-life: 5.64 h
[10]
  Ki: 33 µM
[21]
  Cmax: 15500 ng/mL
[22]
  AUC(0-t) at 24 h: 26800 ng·h/mL
[23]
  CLH: 0.266 mL/min
[24]
  bioavailability: 89.4%
[25]
  Tmax: 0.25 h
3T3-L1
  Activity: Non-Toxic

## Cc1ccc(-c2cccc(Cl)c2-c2ccc3c(c2)CCO3)cc1C(=O)O
[1]
  Ki: 0.32 µM

## O=C(O)C1CCc2ccc(-c3cccc(Cl)c3-c3ccc4ocnc4c3)cc21 (centres undefined)
[1]
  Ki: 0.74 µM

## O=C(O)C1CCc2ccc(-c3cccc(Cl)c3OCC3CCCCC3)cc21 (centres undefined)
[1]
  Ki: 1.8 µM

## O=C(O)c1cc(-c2cccc(Cl)c2-c2ccc3occc3c2)ccc1C(F)(F)F
[1]
  Ki: 0.72 µM

## O=C(O)C1CCc2ccc(-c3cccc(Cl)c3-c3ccc4c(c3)OCO4)cc21 (centres undefined)
[1]
  Ki: 0.79 µM

## O=C(O)C1CCc2ccc(-c3cccc(Cl)c3-c3ccc4occc4c3)cc21 (centres undefined)
[1]
  Ki: 0.69 µM

## O=C(O)C1CCc2ccc(-c3cccc(Cl)c3-c3ccc4c(c3)CCO4)cc21 (centres undefined)
[11]
  CLH: 39.4 mL/min/g
THP-1 [4]
  Activity: Non-Toxic
[17]
  half-life at 0.1 µM: 0.883 h
THP-1 [8]
  Activity: Active
[1]
  Ki: 0.58 µM
[10]
  Ki: 18.1 µM
[23]
  CLH: 2.66 mL/min
3T3-L1
  Activity: Non-Toxic

## O=C(O)C1CCc2ccc(-c3cccc(Cl)c3OC3CCC3)cc21 (centres undefined)
[1]
  Ki: 0.79 µM

## O=C(O)c1cc(-c2cccc(Cl)c2-c2ccc3nonc3c2)ccc1C(F)(F)F
[1]
  Ki: 0.92 µM

## O=C(O)c1cc(-c2cccc(Cl)c2-c2ccc3c(c2)CCO3)ccc1O
[1]
  Ki: 0.28 µM
